# “And” between values parts separate entries of the source, which are not always exact repeats. Identical values can stand only once.
# Assays:
# [1] = target: TNF (Homo sapiens, UniProt P01375); assay: Thermal denaturation assay of thermal stability; type: binding; design: stabilise an asymmetrical form of the soluble TNF trimer
# Experimental: A fluorescence probed thermal denaturation assay was performed to assess the effect of the compounds on the thermal stability of TNF (or other members of the TNF family) as a measure of compound binding. The reaction mixture contained 5 µL of 30× SYPRO® Orange dye (Invitrogen) and 5 µL of TNF (at 1 mg/mL), 37.5 μL PBS, pH 7.4 and 2.5 μL of compound (at 2 mM in DMSO). The mixture (10 µL) was dispensed in quadruplicate into a 384 PCR optical well plate and was run on a 7900HT Fast Real-Time PCR System ([…]). The PCR System heating device was set at 20 °C to 99 °C with a ramp rate of 1.1 °C min^−1; fluorescence changes in the wells were monitored by a CCD device. The fluorescence intensity increase was plotted as a function of temperature and the Tm calculated as the midpoint of this denaturation curve (determined as the point of inflection).
# [2] = target: T1, mouse TNF (Mus musculus, UniProt P06804); assay: TNF L929 cytotoxicity assay, mouse TNF; type: cell-based; conditions: for Luminescence units: Mouse TNF, L929
# T1 construct: stabilise an asymmetrical form of the soluble TNF trimer
# T1 sequence (P06804 80-235 limits assumed): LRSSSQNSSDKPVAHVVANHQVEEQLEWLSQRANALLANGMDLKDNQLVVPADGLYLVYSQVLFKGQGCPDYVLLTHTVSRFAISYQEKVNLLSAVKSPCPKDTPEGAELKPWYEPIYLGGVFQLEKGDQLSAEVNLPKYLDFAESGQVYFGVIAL
# Experimental: TNF (human or mouse) kills L929 cells which have been compromised by incubation with a sub-lethal concentration of actinomycin D, and this effect is inhibited with TNF biologics. Compounds were titrated in DMSO, and then pre-incubated with human or mouse TNF for 1 h. L929 cells (ECACC, #85011425) in media containing actinomycin D (2 µg/mL) were added to the TNF inhibitor mixture and incubated for 18 h. L929 cytotoxicity was measured by the addition of CellTitreGlo (Promega). Luminescence was measured after an incubation of at least 20 min in the dark. Percentage inhibition was calculated between unstimulated wells (maximum signal), and wells with TNF, DMSO and actinomycin D (minimum signal). The IC50 was calculated as the point of inflexion for a 4PL fitted curve. Mean IC50s are reported as a mean of at least two experiments. Cells were described as mycoplasma-free when purchased and were tested using Mycoalert (Lonza) after each batch of assay vial preparation.
# [3] = test system: NF-κB stimulated by the TNFR1 agonist antibody; assay: HEK-293 reporter gene assay, anti-TNFR1 agonist antibody stimulus; type: cell-based, human; conditions: agonist antibody 0.3 μg/mL; compound up to 10 µM
# Experimental: Stimulation of HEK-293 cells by TNF leads to activation of the NF-κB pathway. The HEK-Blue^TM CD40L SEAP (secreted embryonic alkaline phosphatase) reporter cell line used to determine TNF activity (InvivoGen, #hkb-CD40, cells were described as mycoplasma free when purchased and were tested using Mycoalert [Lonza] after each batch of assay vial preparation). Compounds were titrated in DMSO and pre-incubated with TNF at a concentration giving half maximal response (10 pM for human or 20 pM for mouse) or the anti-human TNFR1 agonist antibody (R&D Systems. #AF 225) for 1 h. Cells were added to the compound/stimulus mixture and further incubated for 18 h. SEAP was measured using the colorimetric substrate HEK-Blue Detect^TM or QUANTI-Blue^TM from InvivoGen. Percentage inhibitions for compound dilutions were calculated between a DMSO control and maximum inhibition (by excess anti-TNF biologic, or NF-κB inhibitor–TPCA-1 [Tocris #2559, R&D Systems]). The IC50 was determined as the point of inflexion between the fitted minimum and maximum of the compound dose response curve, calculated using 4PL fitted curve. Mean IC50s are reported as a mean of at least two experiments. Dose response curves for TNF and the anti-human TNFR1 agonist antibody are shown in Supplementary Fig. 9.
# Sequence of TNF (P01375 77-233 limits assumed): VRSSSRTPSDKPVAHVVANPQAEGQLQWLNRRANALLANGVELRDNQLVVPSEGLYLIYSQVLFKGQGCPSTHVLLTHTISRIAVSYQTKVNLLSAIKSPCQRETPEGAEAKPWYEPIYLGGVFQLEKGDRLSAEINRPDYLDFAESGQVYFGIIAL
compound,measurement,setting,value
Cc1ccc(C)c(Cn2c(C(O)c3ccncc3)nc3ccc(-c4cnn(C)c4)cc32)c1 (stereo not shown) [UCB-9260],Tm difference (hTNF + compound) - (hTNF+DMSO),[1]; DMSO 5%,17.3 °C
same,Tm (mean ± SD),"[1]; hTNF + DMSO (5%) + compound, n=4 replicates",78.0 ± 0.7 °C
same,Tm1 Average,"[1]; inhouse hTNF 5% DMSO + compound, 4 wells",78 °C
same,Unreviewed - Tm1,"[1]; single wells, inhouse hTNF 5% DMSO + compound, listed as 1449260-000, in °C",77.1 and 77.9 and 78.1 and 78.7
same,Luminescence units,[2]; compound -logM 4.6,12797 Luminescence units
same,Luminescence units,[2]; compound -logM 5.08,13525 Luminescence units
same,Luminescence units,[2]; compound -logM 5.56,13101 Luminescence units
same,Luminescence units,[2]; compound -logM 6.03,12546 Luminescence units
same,Luminescence units,[2]; compound -logM 6.51,10886 Luminescence units
same,Luminescence units,[2]; compound -logM 6.99,9129 Luminescence units
same,Luminescence units,[2]; compound -logM 7.46,7403 Luminescence units
same,Luminescence units,[2]; compound -logM 7.94,7468 Luminescence units
same,Luminescence units,[2]; compound -logM 8.42,7718 Luminescence units
same,Luminescence units,[2]; compound -logM 8.9,5980 Luminescence units
same,IC50,"[2]; mouse TNF, mouse L929 cells + actinomycin D, read-out: geometric mean IC50, TNF-dependent cytotoxicity",120 nM
same,inhibition of NF-κB stimulated by TNFR1 agonist antibody,[3],no inhibition
